Test results: patent US12545637B2, “Extrahepatic targeted cationic lipid compound with high efficiency and low toxicity and its composition” (BEIJING YOUCARE KECHUANG PHARMACEUTICAL TECHNOLOGY CO., LTD., priority 2023, dated 2026)

Experiments:
[1] = Detection of encapsulation efficiency, drug loading concentration and total RNA concentration (RiboGreen); assay type: physicochemical; conditions: for Drug loading concentration / Encapsulation efficiency / Total RNA concentration: LNP formulation prepared from the cationic lipid; for encapsulation efficiency higher than ALC-0315: difference vs ALC-0315; for encapsulation efficiency higher than HIMA: difference vs HIMA (HHMA); for encapsulation efficiency higher than SM-102: difference vs SM-102; for encapsulation efficiency higher than YK-009: difference vs YK-009; for encapsulation efficiency higher than compound 21: difference vs compound 21; for encapsulation efficiency higher than compound 23: difference vs compound 23; for drug loading concentration, times that of ALC-0315 / total RNA concentration, times that of ALC-0315: ratio vs ALC-0315; for drug loading concentration, times that of HIMA / total RNA concentration, times that of HIMA: ratio vs HIMA (HHMA); for drug loading concentration, times that of SM-102 / total RNA concentration, times that of SM-102: ratio vs SM-102; for drug loading concentration, times that of YK-009 / total RNA concentration, times that of YK-009: ratio vs YK-009; for drug loading concentration, times that of compound 21 / total RNA concentration, times that of compound 21: ratio vs compound 21; for drug loading concentration, times that of compound 23 / total RNA concentration, times that of compound 23: ratio vs compound 23
Excerpt: Encapsulation efficiency is a key quality attribute of liposomes, which refers to the percentage of drug content encapsulated in the lipid bimolecular layer accounting for the total drug dose and can reflect the degree of drug encapsulation in liposomes. The Chinese Pharmacopoeia stipulates that the encapsulation efficiency should generally not be less than 80%.
The drug loading amount is the ratio of the amount of drug in the liposome to the total amount of drug and carrier in the liposome. The drug loading amount directly affects the clinical application dose of the drug. […] The drug loading concentration is proportional to the drug loading amount, and the relative proportion of the drug loading concentrations can represent the relative proportion of the drug loading amounts. The relative ratio of the total RNA concentrations may represent the relative ratio of the amounts of mRNA carried by the LNP formulations.
1×TE buffer, 0.1% Triton X-100 buffer, RiboGreen reagent (1: 200) and mRNA standard stock solution were prepared.
An appropriate amount of the sample was added to an appropriate amount of 1×TE buffer, and the mixture was diluted to obtain a solution containing approximately […] sample per 1 mL. Then the sample was added to a 96-well plate, and 50 μL of the diluted test sample or the mRNA standard stock solution was added to each well, then 1×TE buffer and 0.1% Triton X-100 buffer were added. The sample was incubated at 37° C. for 10 minutes, and 100 μL RiboGreen reagent (1:200) was added to each well of the test sample in the 96-well plate. The sample was centrifugated, and the data were read using a microplate reader, and processed.

female BALB/C mice = assay: In vivo imaging in mice of Fluc-mRNA LNP formulations (mRNA expression and duration); conditions: for average radiation intensity, 6 h / average radiation intensity, 24 h / average radiation intensity, 48 h / average radiation intensity, 7 d: Fluc-mRNA LNP intramuscular; for average radiation intensity, 6 h: 6 h after administration; for average radiation intensity, 24 h: 24 h after administration; for average radiation intensity, 48 h: 48 h after administration; for average radiation intensity, 7 d: 7 d after administration
Procedure: The LNP formulation (prepared according to Example 4) containing […] Fluc-mRNA was injected intramuscularly into female BALB/C mice aged 4-6 weeks and weighed 17-19 g, and the mice were intraperitoneally injected with fluorescent imaging substrate at specific time points after administration (6h, 24 h, 48h and 7d), where the mice were allowed to free move for 5 minutes, and then the average radiation intensity (corresponding to fluorescence expression intensity) of the protein expression of the mRNA carried by the LNP in the mice was detected by the IVIS Spectrum small animal in vivo imaging system.

CCCCCCCCC(CCCCCCCC)OC(=O)CCCCCN(CCO)CCN(CCO)CCCCCC(=O)OC(CCCCCCCC)CCCCCCCC [YK-401, di(heptadecan-9-yl) 6,6′-(ethane-1,2-diyl-bis((2-hydroxyethyl)azanediyl))dihexanoate]
Drug loading concentration [1]: 37.16 µg/mL | Encapsulation efficiency [1]: 83.6% | Total RNA concentration [1]: 41.71 µg/mL | encapsulation efficiency higher than ALC-0315 [1]: 20.3% | encapsulation efficiency higher than HIMA [1]: 23.4% | encapsulation efficiency higher than SM-102 [1]: 20.7% | encapsulation efficiency higher than YK-009 [1]: 20.2% | encapsulation efficiency higher than compound 21 [1]: 25.6% | encapsulation efficiency higher than compound 23 [1]: 27.4% | drug loading concentration, times that of ALC-0315 [1]: 1.38 | total RNA concentration, times that of ALC-0315 [1]: 1.10 | drug loading concentration, times that of HIMA [1]: 1.14 | total RNA concentration, times that of HIMA [1]: 1.14 | drug loading concentration, times that of SM-102 [1]: 1.40 | total RNA concentration, times that of SM-102 [1]: 1.16 | drug loading concentration, times that of YK-009 [1]: 1.35 | total RNA concentration, times that of YK-009 [1]: 1.08 | drug loading concentration, times that of compound 21 [1]: 1.69 | total RNA concentration, times that of compound 21 [1]: 1.44 | drug loading concentration, times that of compound 23 [1]: 1.86 | total RNA concentration, times that of compound 23 [1]: 1.34 | average radiation intensity, times that of ALC-0315 (female BALB/C mice; 6 h): 1.85 | average radiation intensity, times that of HHMA (female BALB/C mice; 6 h): 2.36 | average radiation intensity, times that of SM-102 (female BALB/C mice; 6 h): 2.25 | average radiation intensity, times that of compound 21 (female BALB/C mice; 6 h): 2.59 | average radiation intensity, times that of compound 23 (female BALB/C mice; 6 h): 2.68 | expression amount in mice, times that of YK-415 (female BALB/C mice; 6 h): 13.22 | expression amount in mice, times that of YK-417 (female BALB/C mice; 6 h): 25.75 | mRNA expression in mice, times that of YK-411 (female BALB/C mice; 6 h): 266.26 | average radiation intensity, times that of ALC-0315 (female BALB/C mice; 24 h): 4.25 | average radiation intensity, times that of HHMA (female BALB/C mice; 24 h): 6.72 | average radiation intensity, times that of SM-102 (female BALB/C mice; 24 h): 6.53 | average radiation intensity, times that of compound 21 (female BALB/C mice; 24 h): 7.26 | average radiation intensity, times that of compound 23 (female BALB/C mice; 24 h): 7.98 | expression amount in mice, times that of YK-415 (female BALB/C mice; 24 h): 12.50 | expression amount in mice, times that of YK-417 (female BALB/C mice; 24 h): 40.34 | mRNA expression in mice, times that of YK-411 (female BALB/C mice; 24 h): 398.73 | average radiation intensity, times that of ALC-0315 (female BALB/C mice; 48 h): 9.79 | average radiation intensity, times that of HHMA (female BALB/C mice; 48 h): 11.79 | average radiation intensity, times that of SM-102 (female BALB/C mice; 48 h): 11.96 | average radiation intensity, times that of compound 21 (female BALB/C mice; 48 h): 12.46 | average radiation intensity, times that of compound 23 (female BALB/C mice; 48 h): 11.94 | expression amount in mice, times that of YK-415 (female BALB/C mice; 48 h): 24.89 | expression amount in mice, times that of YK-417 (female BALB/C mice; 48 h): 55.79 | mRNA expression in mice, times that of YK-411 (female BALB/C mice; 48 h): 403.10 | average radiation intensity, times that of ALC-0315 (female BALB/C mice; 7 d): 1.50 | average radiation intensity, times that of HHMA (female BALB/C mice; 7 d): 1.76 | average radiation intensity, times that of SM-102 (female BALB/C mice; 7 d): 1.56 | average radiation intensity, times that of compound 21 (female BALB/C mice; 7 d): 1.65 | average radiation intensity, times that of compound 23 (female BALB/C mice; 7 d): 1.72 | expression amount in mice, times that of YK-415 (female BALB/C mice; 7 d): 2.60 | expression amount in mice, times that of YK-417 (female BALB/C mice; 7 d): 4.60 | mRNA expression in mice, times that of YK-411 (female BALB/C mice; 7 d): 21.90 | average radiation intensity, 6 h (female BALB/C mice): 1557640 | average radiation intensity, 24 h (female BALB/C mice): 806240 | average radiation intensity, 48 h (female BALB/C mice): 393020 | average radiation intensity, 7 d (female BALB/C mice): 10512

CCCCCCCCC(CCCCCCCC)OC(=O)CCCCCCCN(CCO)CCN(CCO)CCCCCCCC(=O)OC(CCCCCCCC)CCCCCCCC [YK-403, di(heptadecan-9-yl) 8, 8′-(ethane-1,2-diyl-bis((2-hydroxyethyl)azanediyl))dioctanoate]
Drug loading concentration [1]: 34.21 µg/mL | Encapsulation efficiency [1]: 87.9% | Total RNA concentration [1]: 40.53 µg/mL | encapsulation efficiency higher than ALC-0315 [1]: 24.6% | encapsulation efficiency higher than HIMA [1]: 27.7% | encapsulation efficiency higher than SM-102 [1]: 25.0% | encapsulation efficiency higher than YK-009 [1]: 24.4% | encapsulation efficiency higher than compound 21 [1]: 29.9% | encapsulation efficiency higher than compound 23 [1]: 31.7% | drug loading concentration, times that of ALC-0315 [1]: 1.27 | total RNA concentration, times that of ALC-0315 [1]: 1.07 | drug loading concentration, times that of HIMA [1]: 1.05 | total RNA concentration, times that of HIMA [1]: 1.11 | drug loading concentration, times that of SM-102 [1]: 1.29 | total RNA concentration, times that of SM-102 [1]: 1.12 | drug loading concentration, times that of YK-009 [1]: 1.24 | total RNA concentration, times that of YK-009 [1]: 1.05 | drug loading concentration, times that of compound 21 [1]: 1.56 | total RNA concentration, times that of compound 21 [1]: 1.40 | drug loading concentration, times that of compound 23 [1]: 1.71 | total RNA concentration, times that of compound 23 [1]: 1.31 | average radiation intensity, times that of ALC-0315 (female BALB/C mice; 6 h): 1.89 | average radiation intensity, times that of HHMA (female BALB/C mice; 6 h): 2.40 | average radiation intensity, times that of SM-102 (female BALB/C mice; 6 h): 2.30 | average radiation intensity, times that of compound 21 (female BALB/C mice; 6 h): 2.65 | average radiation intensity, times that of compound 23 (female BALB/C mice; 6 h): 2.73 | expression amount in mice, times that of YK-415 (female BALB/C mice; 6 h): 13.48 | expression amount in mice, times that of YK-417 (female BALB/C mice; 6 h): 26.26 | mRNA expression in mice, times that of YK-411 (female BALB/C mice; 6 h): 271.52 | average radiation intensity, times that of ALC-0315 (female BALB/C mice; 24 h): 4.51 | average radiation intensity, times that of HHMA (female BALB/C mice; 24 h): 7.13 | average radiation intensity, times that of SM-102 (female BALB/C mice; 24 h): 6.93 | average radiation intensity, times that of compound 21 (female BALB/C mice; 24 h): 7.70 | average radiation intensity, times that of compound 23 (female BALB/C mice; 24 h): 8.47 | expression amount in mice, times that of YK-415 (female BALB/C mice; 24 h): 13.26 | expression amount in mice, times that of YK-417 (female BALB/C mice; 24 h): 42.79 | mRNA expression in mice, times that of YK-411 (female BALB/C mice; 24 h): 422.95 | average radiation intensity, times that of ALC-0315 (female BALB/C mice; 48 h): 7.69 | average radiation intensity, times that of HHMA (female BALB/C mice; 48 h): 9.25 | average radiation intensity, times that of SM-102 (female BALB/C mice; 48 h): 9.39 | average radiation intensity, times that of compound 21 (female BALB/C mice; 48 h): 9.78 | average radiation intensity, times that of compound 23 (female BALB/C mice; 48 h): 9.37 | expression amount in mice, times that of YK-415 (female BALB/C mice; 48 h): 19.54 | expression amount in mice, times that of YK-417 (female BALB/C mice; 48 h): 43.80 | mRNA expression in mice, times that of YK-411 (female BALB/C mice; 48 h): 316.45 | average radiation intensity, times that of ALC-0315 (female BALB/C mice; 7 d): 1.41 | average radiation intensity, times that of HHMA (female BALB/C mice; 7 d): 1.65 | average radiation intensity, times that of SM-102 (female BALB/C mice; 7 d): 1.47 | average radiation intensity, times that of compound 21 (female BALB/C mice; 7 d): 1.55 | average radiation intensity, times that of compound 23 (female BALB/C mice; 7 d): 1.61 | expression amount in mice, times that of YK-415 (female BALB/C mice; 7 d): 2.44 | expression amount in mice, times that of YK-417 (female BALB/C mice; 7 d): 4.32 | mRNA expression in mice, times that of YK-411 (female BALB/C mice; 7 d): 20.54 | average radiation intensity, 6 h (female BALB/C mice): 1588400 | average radiation intensity, 24 h (female BALB/C mice): 855204 | average radiation intensity, 48 h (female BALB/C mice): 308540 | average radiation intensity, 7 d (female BALB/C mice): 9857
